Experimental data from PMC4568831 (Molecular pharmaceutics, 2015).
Like-named read-outs stand apart in the source and are kept apart here.

How the values were obtained:
[1] = In vitro precipitation / solubilization of CFZ in aqueous media; format: physicochemical; conditions: ~5 M HCl, diprotonated state
[2] = Measurement of CFZ in tissues, partition ratios after prolonged oral dosing; format: in vivo, mice (male C57Bl6); conditions: mice, after eight week washout period
[3] = cited from earlier work
[4] = mice; cited from earlier work
[5] = humans; cited from earlier work

## CC(C)/N=c1\cc2n(-c3ccc(Cl)cc3)c3ccccc3nc-2cc1Nc1ccc(Cl)cc1 [CFZ, Clofazimine]
[1]
  pH at which CFZ was completely solubilized in aqueous media: < 1
[2]
  CFZ mass retained in spleen: exceeded its combined mass retained in the other organs
[3]; oral, after an acute dose
  half-life: hours to days
[3]; upon prolonged oral administration
  half-life: weeks to months
[4]
  pharmacokinetic half-life t1/2: 170 h
[5]
  pharmacokinetic half-life t1/2: ~ 70 days
